# PubChem BioAssay (NCI)
# Values joined by “and” are separate entries in the source; they are usually repeats but may differ in a detail not shown here. Equal values may be shown once.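 Growth conditions: 96-well plates. Treatment: test compound, 48 hours, 5 concentrations. Analysis: linear interpolation between bracketing concentrations; unreached endpoints set to highest concentration. Abbreviation: GI50, concentration required for 50% inhibition of growth. TGI marks complete inhibition of growth.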
# Assays:
# Assay in all cases: NCI tumour cell line growth inhibition, 48 h
# [1] = tested on: XF 498 CNS
# [2] = tested on: MDA-N
# [3] = tested on: RXF-631 renal
# [4] = tested on: HOP-18 NSCLC
# [5] = tested on: BT-549 breast
# [6] = tested on: DMS 273 small cell lung
# [7] = tested on: MCF7 breast
# [8] = tested on: DU-145 prostate
# [9] = tested on: DMS 114 small cell lung
# [10] = tested on: P388/ADR leukemia
# [11] = tested on: SN12K1 renal
Compound,TGI [1],TGI [2],TGI [3],TGI [4],TGI [5],TGI [6],TGI [7],TGI [8],TGI [9],TGI [10] [µM],GI50 [1] [µM],GI50 [2] [µM],GI50 [3] [µM],GI50 [4] [µM],GI50 [6] [µM],GI50 [8] [µM],TGI [11] [µM],GI50 [9] [µM]
COc1cc2c(c(O)c1C)C(=O)C(Cl)=CC2=O,35.2 µM,12.1 µM,17.6 µM,30.1 µM,18.4 µM,34.5 µM,15.8 µM,13.3 µM,32.8 µM,,,,,,,,,
CCC1CCC2CCCC(C)N12 (stereo unspecified),> 100 µM,,> 100 µM,> 100 µM,,> 100 µM,,,> 100 µM,,,,,,,,,
CN(C)CCNC(=O)c1cccc2nc3c(Cl)cccc3nc12,11.7 µM,,> 100 µM,> 88 µM,,> 100 µM,,,12.1 µM,,,,,,,,,
O=C(O)CCCc1ccc(N(CCCl)CCCl)cc1,31.9 µM and 158 µM,271 µM and 325 µM,47.7 µM and 277 µM,> 70 µM and 267 µM,290 µM and 289 µM,28 µM and 161 µM,379 µM and 431 µM,590 µM and 191 µM,32.4 µM and 179 µM,154,12.1,194,19.7,17.7,3.84,41.7,238,7.84
CC1(C)N=C(N)N=C(N)N1c1ccc(CCCCc2ccc(S(=O)(=O)F)cc2Cl)c(Cl)c1,3 µM,39.5 µM,,121 µM,14.5 µM,,28.7 µM,90.4 µM,16.4 µM,7.56,,,,,,,6.92,
COc1cc2c(cc1O)[C@H](Cc1ccc(Oc3cc(C[C@H]4c5cc(OC)c(OC)cc5CCN4C)ccc3OC)cc1)NCC2,24 µM,,32 µM,32.7 µM,,43.2 µM,,,40.5 µM,,,,,,,,,
CN1CCCNCCN(CCc2ccccn2)CCCN(C)CC1,> 100 µM,,> 100 µM,> 100 µM,,81.5 µM,,,> 58.2 µM,,,,,,,,,
OCc1c(-c2cccc3ccccc23)sc(-c2cccc3ccccc23)c1CO,19.3 µM,,37.9 µM,26.4 µM,,28.5 µM,,,22.8 µM,,,,,,,,,
CC1CCC[P+](Cc2ccccc2)(c2ccccc2)CC1 (stereo unspecified),> 100 µM,,> 100 µM,13 µM,,> 100 µM,,,96.1 µM,,,,,,,,,
